Test system: restrained mice
Assay: Forced swim test after chronic restraint stress (Example 2)
Type: in vivo, C57BL/6 male mice
Details: IN cotinine post-treatment, p<0.01
Protocol: Mice between 2-3 months of age after one week of acclimatization were randomly divided into two groups. Stressed mice were subjected to restraint stress. Control (non-restrained) mice were allowed to move freely during this period. After the stress exposure period, mice were divided into three experimental groups: 1) Non-restrained mice treated with vehicle (PBS, pH 7.4) serving as unstressed controls (n=8); 2) Restrained mice (RS) treated with vehicle (n=8); 3), RS mice treated with 24 μl of a cotinine solution (10 mg/ml in PBS, pH 7.4) via intranasal route of administration (n=6). Treatments were administered daily until euthanasia. After two weeks of treatments mice were behaviorally tested and euthanized (FIG. 10) Intranasal delivery was performed as previously described (Hanson and Frey, 2007). Mice at 2-3 months of age were hand-restrained, positioned in a supine position, and administered two 12 μl drops of cotinine solution (10 mg/ml in PBS), or PBS alone, into both nares. Mice were given an extra 12 μl treatment drop if the mouse expelled out the solution. Mice were kept in the supine posture for 5 seconds after delivery to facilitate the delivery. The administration was performed daily until euthanasia. […] Mice were placed in a transparent cylinder filled with water at 25° C. for 5 min and behavior was recorded. […]

SMILES: CN1C(=O)CC[C@H]1c1cccnc1 [Cotinine, (5S)-1-methyl-5-(3-pyridyl) pyrrolidin-2-one]
- immobility in the forced swim test: significantly lower than PBS-treated restrained mice

From patent US11260050B2, “Combination of cotinine plus antioxidant for treatment-resistant depression and correction of astrocytes functional deficit induced by depression and other neuropathological” (UNIVERSIDAD SAN SEBASTIAN, priority 2017, dated 2022)
